The source of these data is patent publication US5332818A, “Immunosuppressive agent and process of producing the same” (Toray Industries, Inc., priority 1989, dated 1994).

SMILES strings stand for the structures.

The assay has as its system mouse spleen cells. In words: Suppression of mitogen (ConA) reaction. The conditions noted are these: 48 hours, 3 cases, read-out: Suppression Rate of Mitogen Reaction; for inhibition at 1 µg/mL: 1 μg/ml; for inhibition at 10 µg/mL: 10 μg/ml; for inhibition at 50 µg/mL: 50 μg/ml. In kind it is cell-based, C57BL/6 mouse. Here is the method:
If mouse spleen cells are cultured in vitro in the presence of concanavalin A (hereinafter referred to as "ConA" for short), the cells are divided and proliferated (mitogen reaction). In this system, the immunosuppressive agent of the present invention or cyclosporin A as a comparative example was added to the culture medium and the effects to the mitogen reaction were examined.
More particularly, C57BL/6 mouse was sacrificed and the spleen was removed. The spleen cells were suspended in RPMI 1640 culture medium containing 10% fetal calf serum (hereinafter referred to as "RPMI 1640" for short) so as to prepare a spleen cell suspension (5×10^6 cells/ml). In the wells of a flat-bottomed 96-well microplate, 100 μl of the suspension was placed and then 50 μl of RPMI 1640 containing ConA (4 μg/ml) as well as 50 μl of RPMI 1640 containing the test compound in the concentration shown in Table 2 were added. The cells were cultured for 48 hours (37° C. 5%CO2) As a control, 50 μl of RPMI 1640 was added. Eight hours before the termination of the culture, 2 μ Ci of [^3 H] thymidine was […], added. After termination of the culture, the cells were collected on a filter paper by using a cell harvester. After drying the filter paper, the filter paper was placed in a vial containing toluene-based scintillator and the radioactivity was measured by a liquid scintillation counter.
The suppression rate of mitogen reaction was calculated according to the following equation: [formula]

Take `Oc1ccc2c3c1O[C@H]1c4[nH]c5ccc(Br)cc5c4C[C@@]4(O)[C@@H](C2)N(CC2CC2)CC[C@]314` [cyclopropylmethyl OH H NH 5'-Br H]: the inhibition at 1 µg/mL turned out to be 7%, the inhibition at 10 µg/mL was found to be 40% and the inhibition at 50 µg/mL is 100%.

Take `Cc1ccc2c3c([nH]c2c1)[C@@H]1Oc2c(O)ccc4c2[C@@]12CCN(CC1CC1)[C@H](C4)[C@]2(O)C3` [cyclopropylmethyl OH H NH 6'-Me H]: the inhibition at 1 µg/mL is 0%, the inhibition at 10 µg/mL worked out at 28% and the inhibition at 50 µg/mL stood at 100%.

As for `Oc1ccc2c3c1O[C@H]1c4[nH]c5ccc(Cl)cc5c4C[C@@]4(O)[C@@H](C2)N(CC2CC2)CC[C@]314` [cyclopropylmethyl OH H NH 5'-Cl H], the inhibition at 1 µg/mL turned out to be 12%, the inhibition at 10 µg/mL turned out to be 37% and the inhibition at 50 µg/mL stood at 100%.

For `C=CCN1CC[C@]23c4c5ccc(O)c4O[C@H]2c2c(c4ccccc4n2C)C[C@@]3(O)[C@H]1C5` [allyl OH H NMe H H], the inhibition at 1 µg/mL was 13%, the inhibition at 10 µg/mL was 50% and the inhibition at 50 µg/mL stood at 100%.

In the case of `C=CCN1CC[C@]23c4c5ccc(O)c4O[C@H]2c2oc4ccccc4c2C[C@@]3(O)[C@H]1C5` [allyl OH H O H H], the inhibition at 1 µg/mL was found to be 6%, the inhibition at 10 µg/mL stood at 45% and the inhibition at 50 µg/mL came out at 100%.

Turning to `Oc1ccc2c3c1O[C@H]1c4[nH]c5c(F)cccc5c4C[C@@]4(O)[C@@H](C2)N(CC2CC2)CC[C@]314` [cyclopropylmethyl OH H NH 7'-F H], the inhibition at 1 µg/mL was 15%, the inhibition at 10 µg/mL amounted to 61% and the inhibition at 50 µg/mL turned out to be 100%.

For `C=CCN1CC[C@]23c4c5ccc(OC(C)=O)c4O[C@H]2c2[nH]c4ccccc4c2C[C@@]3(OC(C)=O)[C@H]1C5` [allyl OAc Ac NH H H], the inhibition at 1 µg/mL stood at 2%, the inhibition at 10 µg/mL is 40% and the inhibition at 50 µg/mL was 100%.

As for `Oc1ccc2c3c1O[C@H]1c4nc5ccccc5cc4C[C@@]4(O)[C@@H](C2)N(CC2CC2)CC[C@]314` [cyclopropylmethyl OH H CH H H], the inhibition at 1 µg/mL worked out at 15%, the inhibition at 10 µg/mL is 43% and the inhibition at 50 µg/mL came out at 75%.

For `C=CCN1CC[C@]23c4c5ccc(OC)c4O[C@H]2c2[nH]c4ccccc4c2C[C@@]3(O)[C@H]1C5` [allyl OH Me NH H H], the inhibition at 1 µg/mL stood at 17%, the inhibition at 10 µg/mL stood at 32% and the inhibition at 50 µg/mL is 100%.

Consider `O=[N+]([O-])c1cccc2c3c([nH]c12)[C@@H]1Oc2c(O)ccc4c2[C@@]12CCN(CC1CC1)[C@H](C4)[C@]2(O)C3` [cyclopropylmethyl OH H NH 7'-NO2 H], for which the inhibition at 1 µg/mL was found to be 5%, the inhibition at 10 µg/mL stood at 55% and the inhibition at 50 µg/mL was determined as 100%.

For the compound `CN1CC[C@]23c4c5ccc(O)c4O[C@H]2c2[nH]c4ccccc4c2C[C@H]3[C@H]1C5` [Me H H NH H H], the inhibition at 1 µg/mL was 0%, the inhibition at 10 µg/mL came to 12% and the inhibition at 50 µg/mL came out at 52%.

In the case of `COc1ccc2c3c1O[C@H]1c4[nH]c5ccccc5c4C[C@@]4(O)[C@@H](C2)N(CC2CC2)CC[C@]314` [cyclopropylmethyl OH Me NH H H], the inhibition at 1 µg/mL came to 9%, the inhibition at 10 µg/mL amounted to 65% and the inhibition at 50 µg/mL came to 100%.

Regarding `C=CCN1CC[C@]23c4c5ccc(O)c4O[C@H]2c2[nH]c4c(Cl)cccc4c2C[C@@]3(O)[C@H]1C5` [allyl OH H NH 7'-Cl H], the inhibition at 1 µg/mL amounted to 17%, the inhibition at 10 µg/mL amounted to 50% and the inhibition at 50 µg/mL is 100%.

In the case of `Oc1ccc2c3c1O[C@H]1c4nc5ccccc5nc4C[C@@]4(O)[C@@H](C2)N(CC2CC2)CC[C@]314` [cyclopropylmethyl OH H N H H], the inhibition at 1 µg/mL amounted to 10%, the inhibition at 10 µg/mL stood at 34% and the inhibition at 50 µg/mL was found to be 55%.

For the compound `Oc1ccc2c3c1O[C@H]1c4[nH]c5ccc6ccccc6c5c4C[C@@]4(O)[C@@H](C2)N(CC2CC2)CC[C@]314` [cyclopropylmethyl OH H NH 4',5'-benzo], the inhibition at 1 µg/mL came to 2%, the inhibition at 10 µg/mL came to 30% and the inhibition at 50 µg/mL amounted to 88%.

As for `CC(=O)O[C@@]12Cc3c([nH]c4ccccc34)[C@@H]3Oc4c(O)ccc5c4[C@@]31CCN(CC1CC1)[C@@H]2C5` [cyclopropylmethyl OAc H NH H H], the inhibition at 1 µg/mL was found to be 2%, the inhibition at 10 µg/mL was determined as 70% and the inhibition at 50 µg/mL worked out at 100%.

Turning to `C=CCN1CC[C@]23c4c5ccc(O)c4O[C@H]2c2[nH]c4ccc(C)cc4c2C[C@@]3(O)[C@H]1C5` [allyl OH H NH 5'-Me H, 5'-methylnaloxindole], the inhibition at 1 µg/mL worked out at 22%, the inhibition at 10 µg/mL was determined as 45% and the inhibition at 50 µg/mL turned out to be 100%.

For `Oc1ccc2c3c1O[C@H]1c4[nH]c5c(Cl)cccc5c4C[C@@]4(O)[C@@H](C2)N(CC2CC2)CC[C@]314` [cyclopropylmethyl OH H NH 7'-Cl H], the inhibition at 1 µg/mL worked out at 15%, the inhibition at 10 µg/mL is 75% and the inhibition at 50 µg/mL amounted to 100%.

With `CC(=O)Oc1ccc2c3c1O[C@H]1c4[nH]c5ccccc5c4C[C@@]4(OC(C)=O)[C@@H](C2)N(CC2CC2)CC[C@]314` [cyclopropylmethyl OAc Ac NH H H], the inhibition at 1 µg/mL was found to be 4%, the inhibition at 10 µg/mL was 55% and the inhibition at 50 µg/mL is 100%.

In the case of `Cn1c2c(c3ccccc31)C[C@@]1(O)[C@H]3Cc4ccc(O)c5c4[C@@]1(CCN3CC1CC1)[C@H]2O5` [cyclopropylmethyl OH H NMe H H], the inhibition at 1 µg/mL is 15%, the inhibition at 10 µg/mL amounted to 69% and the inhibition at 50 µg/mL was determined as 100%.

Take `Cc1ccc2[nH]c3c(c2c1)C[C@@]1(O)[C@H]2Cc4ccc(O)c5c4[C@@]1(CCN2CC1CC1)[C@H]3O5` [cyclopropylmethyl OH H NH 5'-Me H]: the inhibition at 1 µg/mL was found to be 8%, the inhibition at 10 µg/mL is 34% and the inhibition at 50 µg/mL stood at 100%.
